According to US5624937A, “Chemical compounds as inhibitors of amyloid beta protein production” (Eli Lilly and Company, priority 1995, dated 1997):

system: Aβ production (APP-751 Swedish mutation transfected cells 293 751 SWE and CHO 751 SWE); assay: Aβ production inhibition activity in cells (Aβ ELISA of conditioned media, normalized for MTT cytotoxicity); type: cell-based; conditions: 2 h pretreatment + 2 h, normalized to MTT, mean of at least six replicate assays, cell line not stated, read-out: IC50 (concentration of test compound required to inhibit Aβ production by 50%)
Description: Two cell lines (human kidney cell line 293 and Chinese hamster ovary cell line CHO) were stably transfected with the gene for APP-751 containing the double mutation Lys651 -Met652 to Asn651 -Leu652 (APP-751 numbering) commonly called the Swedish mutation using the method described in Citron et al., (1992) Nature 360: 672-674. The transfected cell lines were designated as 293 751 SWE and CHO 751 SWE, and were plated in Corning 96 well plates at 2.5×10^4 or 1×10^4 cells per well respectively in Dulbecco's minimal essential media plus 10% fetal bovine serum. Following overnight incubation at 37° C. in an incubator equilibrated with 10% carbon dioxide (CO2), the media were removed and replaced with 200 μL per well of media containing a test compound. After a two hour pretreatment period, the media were again removed and replaced with fresh media containing the test compound and the cells were incubated for an additional two hours.
Test compound stocks were prepared in DMSO such that at the final concentration used in the treatment, the concentration of DMSO did no exceed 0.5%. After treatment, plates were centrifuged in a Beckman GPR at 1200 rpm for five minutes at room temperature to pellet cellular debris from the conditioned media. From each well, 100μL of conditioned media were transferred into an ELISA plate precoated with antibody 266 against βAP-13-28 (Seubert et al , supra.) and stored at 4° C. overnight. An ELISA assay employing labeled antibody 6C6 (against βAP-1-16) was run the next day to measure the amount of Aβ produced.
Cytotoxic effects of the test compounds were measured by a modification of the method of Hansen et al., (1989) J. Immun. Meth. 119: 203-210. To the cells remaining in the tissue culture plate, was added 25 μL of a 3,(4,5-dimethylthiazol-2-yl)2,5-diphenyltetrazolium bromide (MTT) stock solution (5 mg/mL) to a final concentration of 1 mg/mL. Cells were incubated at 37° C. for one hour, and cellular activity was stopped by the addition of an equal volume of MTT lysis buffer (20% w/v sodium dodecylsulfate in 50% DMF, pH 4.7). Complete extraction was achieved by overnight shaking at room temperature. The difference in the OD562 nm and the OD650 nm was measured in a Molecular Devices UVmax microplate reader as an indicator of the cellular viability.
The results of the Aβ ELISA were fit to a standard curve and expressed as ng/mL Aβ peptide. In order to normalize for cytotoxicity, these Aβ results were divided by the MTT results and expressed as a percentage of the results from a drug-free control.
The test compounds were assayed for Aβ production inhibition activity in cells at 10 μg/mL using the test. The results presented in Table 1 are the mean and standard deviation of at least six replicate assays. IC50 means the concentration of test compound in micromoles/liter required to inhibit Aβ production by 50%.

Row | SMILES | IC50
1 | FC(F)(F)c1cc(NC(=S)Nc2ccc(Sc3ccc4ccccc4n3)cc2)ccc1Cl [Example 1, 1-[4-(2-quinolyl)thiophenyl]-3-(4-chloro-3-trifluoromethyphenyl)thiourea] | 3.7 µM
2 | CCOC(=O)c1cc(Sc2ccc(NC(=S)Nc3ccc(Cl)c(C(F)(F)F)c3)cc2)nc2ccccc12 [Example 2, 1-[4-(4-ethoxycarbonyl-2-quinolylthio)phenyl]-3-(4-chloro-3-trifluoromethylphenyl)thiourea] | 3.1 µM
3 | FC(F)(F)c1cc(NC(=S)Nc2ccc(Sc3ccc4cc(Cl)ccc4n3)cc2)ccc1Cl [Example 3, 1-[4-(6-Chloro-2-quinolylthio)phenyl]-3-(4-chloro-3-trifluoromethylphenyl)thiourea] | 2.7 µM
4 | FC(F)(F)c1cc(NC(=S)Nc2ccc(Sc3cc(-c4ccccc4)c4ccccc4n3)cc2)ccc1Cl [Example 4, 1-[4-(4-Phenyl-2-quinolylthio)phenyl]-3-(4-chloro-3-trifluoromethylphenyl)thiourea] | > 20 µM
5 | COc1ccc2nc(Sc3ccc(NC(=S)Nc4ccc(Cl)c(C(F)(F)F)c4)cc3)ccc2c1 [Example 5, 1-[4-(6-Methoxy-2-quinolylthio)phenyl]-3-(4-chloro-3-trifluoromethylphenyl)thiourea] | 4.4 µM
6 | FC(F)(F)c1cc(NC(=S)Nc2ccc(Sc3ccnc4ccccc34)cc2)ccc1Cl [Example 6, 1-[4-(4-Quinolylthio)phenyl]-3-(4-chloro-3-trifluoromethylphenyl)thiourea] | 4.7 µM
7 | FC(F)(F)c1ccc2c(Sc3ccc(NC(=S)Nc4ccc(Cl)c(C(F)(F)F)c4)cc3)ccnc2c1 [Example 7, 1-[4-(7-Trifluoromethyl-4-quinolylthio)phenyl]-3-(4-chloro-3-trifluoromethylphenyl)thiourea] | 4.5 µM
8 | FC(F)(F)c1cc(NC(=S)Nc2ccc(Sc3ccc4ccccc4c3)cc2)ccc1Cl [Example 8, 1-[4-(2-Naphthylthio)phenyl]-3-(4-chloro-3-trifluoromethylphenyl)thiourea] | 2.6 µM
9 | FC(F)(F)c1cc(NC(=S)Nc2ccc(Sc3cccc4ccccc34)cc2)ccc1Cl [Example 9] | 4.9 µM
10 | FC(F)(F)c1cc(NC(=S)Nc2ccc(Sc3nc4ccccc4[nH]3)cc2)ccc1Cl [Example 10, 1-[4-(2-Benzimidazolylthio)phenyl]-3-(4-chloro-3-trifluoromethylphenyl)thiourea] | 7.1 µM
11 | FC(F)(F)c1cc(NC(=S)Nc2ccc(Sc3nc4ccccc4o3)cc2)ccc1Cl [Example 11, 1-[4-(2-Benzoxazolylthio)phenyl]-3-(4-chloro-3-trifluoromethylphenyl)thiourea] | 12.5 µM
12 | FC(F)(F)c1cc(NC(=S)Nc2ccc(Sc3nc4ccccc4s3)cc2)ccc1Cl [Example 12, 1-[4-(2-Benzothiazolylthio)phenyl]-3-(4-chloro-3-trifluoromethylphenyl)thiourea] | 3.9 µM
13 | FC(F)(F)c1cc(NC(=S)Nc2ccc(Sc3nc4cc(Cl)ccc4s3)cc2)ccc1Cl [Example 13, 1-[4-(5-Chloro-2-benzothiazolylthio)phenyl]-3-(4-chloro-3-trifluoromethylphenyl)thiourea] | 1.7 µM
14 | [O-][S+](c1ccc(NC(=S)Nc2ccc(Cl)c(C(F)(F)F)c2)cc1)c1ccc2ccccc2n1 (stereo not shown) [Example 14, 1-[4-(2-Quinolylsulfinyl)phenyl]-3-(4-chloro-3-trifluoromethylphenyl)thiourea] | 12.1 µM
15 | O=S(=O)(c1ccc(NC(=S)Nc2ccc(Cl)c(C(F)(F)F)c2)cc1)c1ccc2ccccc2n1 [Example 15, 1-[4-(2-Quinolylsulfonyl)phenyl]-3-(4-chloro-3-trifluoromethylphenyl)thiourea] | 3.7 µM
16 | FC(F)(F)c1cc(NC(=S)Nc2ccc(Nc3ccc4ccccc4n3)cc2)ccc1Cl [Example 16, 1-[4-(2-quinolylamino)phenyl]-3-(4-chloro-3-trifluoromethylphenyl)thiourea] | 11.8 µM
17 | FC(F)(F)c1cc(NC(=S)Nc2ccc(Oc3ccc4ccccc4n3)cc2)ccc1Cl [Example 17, 1-[4-(2-Quinolyloxy)phenyl]-3-(4-chloro-3-trifluoromethylphenyl)thiourea] | 9.7 µM
18 | O=C(Nc1ccc(Sc2ccc3ccccc3n2)cc1)Nc1ccc(Cl)c(C(F)(F)F)c1 [Example 18, 1-[4-(2-Quinolylthio)phenyl]-3-(4-chloro-3-trifluoromethylphenyl]urea] | > 20 µM
19 | S=C(Nc1ccc(Sc2ccc3ccccc3n2)cc1)Nc1ccc(Cl)c(Cl)c1 [Example 19, 1-[4-(2-Quinolylthio)phenyl]-3-(3,4-dichlorophenyl)thiourea] | 13.8 µM
20 | FC(F)(F)c1cc(NC(=S)Nc2ccc(Sc3ccc(-c4ccccc4)nn3)cc2)ccc1Cl [Example 20] | 4.4 µM
21 | FC(F)(F)c1cc(NC(=S)Nc2ccc(Sc3ccccn3)cc2)ccc1Cl [Example 21] | 8.3 µM
22 | O=[N+]([O-])c1c(Sc2ccc(NC(=S)Nc3ccc(Cl)c(C(F)(F)F)c3)cc2)ccc2ncccc12 [Example 22] | 4.3 µM
